Results as given in PubChem BioAssay AID1845201 (Molecular Pharmacology Branch, DTP, NCI, 2023).
pIC50: −log10 of the molar value. “And” between values parts separate entries of the source, which are not always exact repeats. Identical values can stand only once. Blank lines part the entries; values can stand above or below the molecule they belong to.

Tested on: COR L88 complex tumor spheroid viability
Assay: Anticancer human tumor COR L88 cell line growth inhibition;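 note: compound exposure lasted 7 days before viability readout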;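 for viability, T/C: percent of DMSO vehicle-treated spheroids = 100%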
Conditions: for viability, T/C: stronger effect = lower value
How it was run: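 Complex tumor spheroids combined malignant cells with endothelial cells and mesenchymal stem cells. DNA-damaging drugs and DNA repair inhibitors were tested alone and in combination, at half-log dilutions down from clinical Cmax (top 10 microM if Cmax unknown), 0.25% DMSO final.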

[1] = curve of first compound, second compound 0.003 µM
[2] = curve of first compound, second compound 0.00949 µM
[3] = curve of first compound, second compound 0.03 µM
[4] = curve of first compound, second compound 0.0949 µM
[5] = curve of first compound, second compound 0.3 µM
[6] = second compound 0.003 µM, first compound 0.0316 µM
[7] = second compound 0.003 µM, first compound 0.1 µM
[8] = second compound 0.003 µM, first compound 0.316 µM
[9] = second compound 0.003 µM, first compound 1 µM
[10] = second compound 0.003 µM, first compound 3.16 µM
[11] = second compound 0.003 µM, first compound 10 µM
[12] = second compound 0.00949 µM, first compound 0.0316 µM
[13] = second compound 0.00949 µM, first compound 0.1 µM
[14] = second compound 0.00949 µM, first compound 0.316 µM
[15] = second compound 0.00949 µM, first compound 1 µM
[16] = second compound 0.00949 µM, first compound 3.16 µM
[17] = second compound 0.00949 µM, first compound 10 µM
[18] = second compound 0.03 µM, first compound 0.0316 µM
[19] = second compound 0.03 µM, first compound 0.1 µM
[20] = second compound 0.03 µM, first compound 0.316 µM
[21] = second compound 0.03 µM, first compound 1 µM
[22] = second compound 0.03 µM, first compound 3.16 µM
[23] = second compound 0.03 µM, first compound 10 µM
[24] = second compound 0.0949 µM, first compound 0.0316 µM
[25] = second compound 0.0949 µM, first compound 0.1 µM
[26] = second compound 0.0949 µM, first compound 0.316 µM
[27] = second compound 0.0949 µM, first compound 1 µM
[28] = second compound 0.0949 µM, first compound 3.16 µM
[29] = second compound 0.0949 µM, first compound 10 µM
[30] = second compound 0.3 µM, first compound 0.0316 µM
[31] = second compound 0.3 µM, first compound 0.1 µM
[32] = second compound 0.3 µM, first compound 0.316 µM
[33] = second compound 0.3 µM, first compound 1 µM
[34] = second compound 0.3 µM, first compound 3.16 µM
[35] = second compound 0.3 µM, first compound 10 µM

SMILES: [2H]c1nc(C)nc([2H])c1-c1cc(NC[C@@H](C)c2cccc3c(C(=O)NC)ccnc23)ncn1 + CC[C@@]1(O)C(=O)OCc2c1cc1n(c2=O)Cc2cc3c(CN(C)C)c(O)ccc3nc2-1
pIC50 [1]: < 5.00 | pIC50 [2]: < 5.00 | pIC50 [3]: 5.70 | pIC50 [4]: 5.81 | pIC50 [5]: 5.07 | viability, T/C [6]: 99.2% | viability, T/C [7]: 98.1% | viability, T/C [8]: 103% | viability, T/C [9]: 99% | viability, T/C [10]: 101% | viability, T/C [11]: 100% | viability, T/C [12]: 68.6% | viability, T/C [13]: 72.5% | viability, T/C [14]: 83.1% | viability, T/C [15]: 87.7% | viability, T/C [16]: 85% | viability, T/C [17]: 85.1% | viability, T/C [18]: 56.6% | viability, T/C [19]: 58.3% | viability, T/C [20]: 52.1% | viability, T/C [21]: 55.2% | viability, T/C [22]: 47.3% | viability, T/C [23]: 38.9% | viability, T/C [24]: 58.3% | viability, T/C [25]: 59.8% | viability, T/C [26]: 54.7% | viability, T/C [27]: 62.5% | viability, T/C [28]: 34.4% | viability, T/C [29]: 37% | viability, T/C [30]: 55.9% | viability, T/C [31]: 55.4% | viability, T/C [32]: 57.1% | viability, T/C [33]: 57.3% | viability, T/C [34]: 57.1% | viability, T/C [35]: 42.4%

SMILES: CC1COCCN1c1cc(-c2ccnn2C)c2ccnc(-c3ccn[nH]3)c2n1 (stereo not drawn) + CC[C@@]1(O)C(=O)OCc2c1cc1n(c2=O)Cc2cc3c(CN(C)C)c(O)ccc3nc2-1
pIC50 [1]: 6.82 | pIC50 [2]: > 7.50 | pIC50 [3]: > 7.50 | pIC50 [4]: > 7.50 | pIC50 [5]: > 7.50 | viability, T/C [6]: 72.1% | viability, T/C [7]: 53.5% | viability, T/C [8]: 41.7% | viability, T/C [9]: 25.8% | viability, T/C [10]: 16.1% | viability, T/C [11]: 4.41% | viability, T/C [12]: 37.8% | viability, T/C [13]: 35.5% | viability, T/C [14]: 27.7% | viability, T/C [15]: 17.1% | viability, T/C [16]: 7.44% | viability, T/C [17]: 3.34% | viability, T/C [18]: 26.1% | viability, T/C [19]: 23% | viability, T/C [20]: 16.6% | viability, T/C [21]: 10.1% | viability, T/C [22]: 5.31% | viability, T/C [23]: 2.97% | viability, T/C [24]: 15.2% | viability, T/C [25]: 12.2% | viability, T/C [26]: 8.67% | viability, T/C [27]: 5.76% | viability, T/C [28]: 2.87% | viability, T/C [29]: 1.98% | viability, T/C [30]: 6.79% | viability, T/C [31]: 6.02% | viability, T/C [32]: 5.21% | viability, T/C [33]: 3.2% | viability, T/C [34]: 1.82% | viability, T/C [35]: 1.1%

SMILES: O=C(c1cc(Cc2n[nH]c(=O)c3ccccc23)ccc1F)N1CCN(C(=O)C2CC2)CC1
viability, T/C (compound 0.0949 µM): 97.2% and 87.7% and 107% | viability, T/C (compound 0.3 µM): 98.2% and 101% and 103% | viability, T/C (compound 0.949 µM): 101% and 97.9% and 94.2% | viability, T/C (compound 3 µM): 85.7% and 87.9% and 90.7% | viability, T/C (compound 9.49 µM): 61.5% and 67.3% and 70.3% | viability, T/C (compound 30 µM): 49.8% and 50.5% and 58.2% | pIC50 (curve of compound): < 4.52

pIC50 (compound alone, run of 10/17/2019): < 4.00
SMILES: Cn1nnc2c(C(N)=O)ncn2c1=O
viability, T/C (compound 1 µM): 96.2% [middle of 10 runs] | viability, T/C (compound 3.16 µM): 96.8% [middle of 10 runs] | viability, T/C (compound 10 µM): 95% [middle of 10 runs] | viability, T/C (compound 31.6 µM): 84.1% [middle of 10 runs] | viability, T/C (compound 100 µM): 70.6% [middle of 10 runs]
